{
  "source": "patent US6251881A",
  "about": "“Method of treating diabetic angiopathy” (priority 1999, dated 2001)",
  "key": {"[1]": {"details": "accepted value; cited from earlier work"}, "aldose reductase": {"test_system": "aldose reductase", "details": "humans, mainly in the 1980s; cited from earlier work"}, "humans": {"test_system": "humans", "assay": "administration to humans, adverse effects", "format": "in vivo, human", "details": "doses exceeding 15 g/m^2"}, "mice": {"test_system": "mice", "details": "mouse, in vivo"}, "dogs": {"test_system": "dogs", "details": "dog, in vivo"}},
  "data": [
    {"smiles": "[Cl-].[Na+]", "note": "[common table salt]", "values": [
      {"measurement": "oral LD50", "setting": "[1]", "result": 3750, "unit": "mg/kg"}
    ]},
    {"smiles": "O=C1NC(=O)[C@@]2(CCOc3ccc(F)cc32)N1", "note": "[sorbinil]", "values": [
      {"measurement": "efficacy in slowing the progress of diabetic retinopathy", "setting": "aldose reductase", "result": "some efficacy"},
      {"measurement": "tolerability in patients", "setting": "aldose reductase", "result": "not well tolerated"}
    ]},
    {"smiles": "O=S(=O)([O-])CCSSCCS(=O)(=O)[O-].[Na+].[Na+]", "values": [
      {"measurement": "adverse effects", "setting": "humans", "result": "no adverse effects"},
      {"measurement": "adverse effects", "setting": "mice", "result": "no adverse effects"},
      {"measurement": "adverse effects", "setting": "dogs", "result": "no adverse effects"}
    ]}
  ]
}
